Patent US9340590B2 (priority 2011, dated 2016)
pIC50: −log10 of the molar value. Where two headings read alike, the source gives them in different places. Positions of bridges follow the written chain, without caps; N, C: chain ends. Non-standard residues stand in square brackets, D forms with d. Residues, ends and D or L forms follow the SMILES beside them. 1Nal = N[C@@H](Cc1cccc2ccccc12)C(=O)O

Molecular target: hNav1.7 (Homo sapiens, UniProt Q15858)
Assay: cell-based

hNav1.7, sequence (Q15858 whole entry, looked up): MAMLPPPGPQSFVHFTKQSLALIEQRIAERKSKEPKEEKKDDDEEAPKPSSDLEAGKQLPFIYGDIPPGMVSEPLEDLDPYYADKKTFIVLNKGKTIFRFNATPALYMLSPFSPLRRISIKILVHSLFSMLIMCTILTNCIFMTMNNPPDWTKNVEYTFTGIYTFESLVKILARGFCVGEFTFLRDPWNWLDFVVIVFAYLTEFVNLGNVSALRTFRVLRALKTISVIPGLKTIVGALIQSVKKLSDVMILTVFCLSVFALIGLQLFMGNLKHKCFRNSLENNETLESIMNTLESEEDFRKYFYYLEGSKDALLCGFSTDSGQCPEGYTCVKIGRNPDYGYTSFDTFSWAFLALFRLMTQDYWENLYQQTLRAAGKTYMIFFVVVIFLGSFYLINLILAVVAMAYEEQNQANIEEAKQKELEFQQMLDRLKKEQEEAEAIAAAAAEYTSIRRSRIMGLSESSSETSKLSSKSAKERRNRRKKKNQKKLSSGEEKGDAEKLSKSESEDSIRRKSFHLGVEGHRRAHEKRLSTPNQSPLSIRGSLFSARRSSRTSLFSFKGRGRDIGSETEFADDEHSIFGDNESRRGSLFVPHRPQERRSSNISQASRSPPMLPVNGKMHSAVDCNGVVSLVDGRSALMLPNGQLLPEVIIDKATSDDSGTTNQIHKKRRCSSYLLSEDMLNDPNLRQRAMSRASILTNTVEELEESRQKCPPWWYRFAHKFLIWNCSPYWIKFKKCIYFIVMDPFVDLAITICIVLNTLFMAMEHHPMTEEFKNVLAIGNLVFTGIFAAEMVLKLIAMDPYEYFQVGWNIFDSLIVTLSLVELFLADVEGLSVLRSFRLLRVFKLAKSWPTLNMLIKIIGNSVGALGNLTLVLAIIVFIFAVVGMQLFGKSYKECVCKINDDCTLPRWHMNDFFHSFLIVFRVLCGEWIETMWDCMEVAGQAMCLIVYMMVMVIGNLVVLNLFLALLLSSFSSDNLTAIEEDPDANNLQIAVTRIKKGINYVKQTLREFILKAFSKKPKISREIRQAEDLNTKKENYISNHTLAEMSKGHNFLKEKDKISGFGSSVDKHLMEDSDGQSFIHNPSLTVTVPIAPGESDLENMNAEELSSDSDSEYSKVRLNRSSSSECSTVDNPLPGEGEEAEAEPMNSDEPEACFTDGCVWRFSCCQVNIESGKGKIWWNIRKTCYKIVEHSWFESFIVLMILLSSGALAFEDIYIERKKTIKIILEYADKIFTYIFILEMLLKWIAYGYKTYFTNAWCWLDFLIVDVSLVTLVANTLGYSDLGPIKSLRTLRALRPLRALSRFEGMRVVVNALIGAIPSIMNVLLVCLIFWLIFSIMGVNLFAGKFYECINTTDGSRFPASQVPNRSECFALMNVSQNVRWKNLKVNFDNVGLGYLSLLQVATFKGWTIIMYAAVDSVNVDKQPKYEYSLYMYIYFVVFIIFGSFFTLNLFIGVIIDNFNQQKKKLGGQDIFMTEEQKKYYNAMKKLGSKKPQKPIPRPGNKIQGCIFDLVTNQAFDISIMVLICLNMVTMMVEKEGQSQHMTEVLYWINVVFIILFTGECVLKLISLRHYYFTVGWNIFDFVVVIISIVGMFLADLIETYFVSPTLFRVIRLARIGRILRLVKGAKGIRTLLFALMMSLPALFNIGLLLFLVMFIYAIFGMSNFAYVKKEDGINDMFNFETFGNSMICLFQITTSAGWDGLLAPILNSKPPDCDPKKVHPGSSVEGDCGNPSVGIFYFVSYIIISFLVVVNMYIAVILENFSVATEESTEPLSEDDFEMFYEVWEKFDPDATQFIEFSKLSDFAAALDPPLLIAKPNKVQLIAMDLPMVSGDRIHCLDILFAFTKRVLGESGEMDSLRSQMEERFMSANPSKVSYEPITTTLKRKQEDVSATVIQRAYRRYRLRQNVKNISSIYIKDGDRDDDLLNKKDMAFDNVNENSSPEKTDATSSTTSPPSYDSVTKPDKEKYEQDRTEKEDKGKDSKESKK

| SMILES | pIC50 (read-out: Nav1.7 Use IC50) | pIC50 (Nav1.7 Use IC50) |
| --- | --- | --- |
| CC[C@H](C)[C@@H]1NC(=O)[C@@H]2CSSC[C@@H]3NC(=O)[C@H](C(C)C)NC(=O)[C@H](CC(C)C)NC(=O)[C@H](CC(N)=O)NC(=O)[C@@H]4CCCN4C(=O)[C@H](CCCNC(=N)N)NC(=O)[C@H](CSSC[C@H](NC(=O)[C@@H](N)CC(=O)O)C(=O)N[C@@H](CC(C)C)C(=O)NCC(=O)N[C@@H](Cc4ccccc4)C(=O)N[C@@H](CCSC)C(=O)N[C@@H](CCCNC(=N)N)C(=O)N[C@@H](CCCCN)C(=O)N2)NC(=O)[C@H](CSSC[C@@H](C(=O)N[C@@H](CCCCN)C(=O)N[C@@H](Cc2cccc4ccccc24)C(=O)N[C@H](C(=O)N[C@@H](Cc2ccccc2)C(N)=O)C(C)C)NC(=O)[C@H](Cc2c[nH]c4ccccc24)NC(=O)[C@H](CCCCN)NC(=O)[C@H](Cc2c[nH]cn2)NC(=O)[C@H]([C@@H](C)O)NC(=O)[C@H](CCCNC(=N)N)NC(=O)[C@H](CO)NC3=O)NC(=O)[C@H](CCCCN)NC(=O)[C@H](CC(=O)O)NC(=O)[C@H](CC(N)=O)NC(=O)[C@H](CC(=O)O)NC(=O)[C@@H]2CCCN2C1=O [[1-Nal32]GpTx-1(1-34)] (H-DCLGFMRKCIPDNDKCCRPNLVCSRTHKWCK[1Nal]VF-NH2; disulfide 2-17, 9-23, 16-30) | 8.40 | – |
| CC[C@@H]1NC(=O)CNC(=O)[C@H](CC(C)C)NC(=O)[C@@H](NC(=O)[C@@H](N)CC(=O)O)CSSC[C@@H]2NC(=O)[C@@H]3CSSC[C@@H](C(=O)N[C@@H](CCCCN)C(=O)N[C@@H](Cc4ccc(O)cc4)C(=O)N[C@H](C(=O)N[C@@H](Cc4ccccc4)C(N)=O)C(C)C)NC(=O)[C@H](Cc4c[nH]c5ccccc45)NC(=O)[C@H](CCCCN)NC(=O)[C@H](Cc4cnc[nH]4)NC(=O)[C@H]([C@@H](C)O)NC(=O)[C@H](CCCNC(=N)N)NC(=O)[C@H](CO)NC(=O)[C@H](CSSC[C@H](NC(=O)[C@H](CCCCN)NC(=O)[C@H](CCCNC(=N)N)NC(=O)[C@H](CCSC)NC1=O)C(=O)N[C@@H]([C@@H](C)CC)C(=O)N1CCC[C@H]1C(=O)N[C@@H](CC(=O)O)C(=O)N[C@@H](CC(N)=O)C(=O)N[C@@H](CC(=O)O)C(=O)N[C@@H](CCCCN)C(=O)N3)NC(=O)[C@H](C(C)C)NC(=O)[C@H](CC(C)C)NC(=O)[C@H](CC(N)=O)NC(=O)[C@@H]1CCCN1C(=O)[C@H](CCCNC(=N)N)NC2=O [[2-Abu5]GpTx-1(1-34)] | – | 7.08 |
| CCCC[C@@H]1NC(=O)[C@H](C)NC(=O)CNC(=O)[C@H](CC(C)C)NC(=O)[C@@H](NC(=O)[C@@H](N)CC(=O)O)CSSC[C@@H]2NC(=O)[C@@H]3CSSC[C@@H](C(=O)N[C@@H](CCCCN)C(=O)N[C@@H](Cc4ccc(O)cc4)C(=O)N[C@H](C(=O)N[C@@H](Cc4ccccc4)C(N)=O)C(C)C)NC(=O)[C@H](Cc4c[nH]c5ccccc45)NC(=O)[C@H](CCCCN)NC(=O)[C@H](Cc4c[nH]cn4)NC(=O)[C@H]([C@@H](C)O)NC(=O)[C@H](CCCNC(=N)N)NC(=O)[C@H](CO)NC(=O)[C@H](CSSC[C@H](NC(=O)[C@H](CCCCN)NC(=O)[C@H](CCCNC(=N)N)NC1=O)C(=O)N[C@@H]([C@@H](C)CC)C(=O)N1CCC[C@H]1C(=O)N[C@@H](CC(=O)O)C(=O)N[C@@H](CC(N)=O)C(=O)N[C@@H](CC(=O)O)C(=O)N[C@@H](CCCCN)C(=O)N3)NC(=O)[C@H](C(C)C)NC(=O)[C@H](CC(C)C)NC(=O)[C@H](CC(N)=O)NC(=O)[C@@H]1CCCN1C(=O)[C@H](CCCNC(=N)N)NC2=O [[Ala5;Nle6]GpTx-1(1-34)] | 8.00 | – |
